Entries after “also recorded” stand apart in the source; their conditions may differ.
Assays:
tubulin [1] = experiment: Inhibition of tubulin polymerization (turbidimetric, 350 nm); format: biochemical, bovine; conditions: 1.0 mg/mL tubulin, 0.8 M glutamate, 30°, 20 minutes; ± SD
Protocol: (§1) Electrophoretically homogeneous bovine brain tubulin was prepared as described previously (20). Nonradiolabeled colchicine was obtained from Sigma and [^3 H]colchicine from Dupont-NEN. Stock 2.0 M solutions of monosodium glutamate were adjusted to pH 6.6 with HCl. MCF-7 breast cancer cells were obtained from Dr. D. Scudiero, National Cancer Institute. Curacin A is referred to in the tables provided below, and was obtained as stated in Gerwick's U.S. Pat. No. 5,324,739. All data presented for curacin A represent averages obtained in contemporaneous experiments with natural and synthetic drug. All drugs were dissolved in dimethyl sulfoxide, and control reaction mixtures contained an equivalent amount of the solvent.
Tubulin polymerization was followed turbidimetrically at 350 nm in Gilford model 250 spectrophotometers equipped with electronic temperature controllers. All concentrations refer to the final reaction volume of 0.25 mL, although the preincubation was performed in 0.24 mL, followed by addition of 10 μL of 10 mM GTP. Reaction mixtures contained 1.0 mg/mL tubulin, 0.8 M monosodium glutamate, 4% dimethyl sulfoxide and varying drug concentrations. Samples were preincubated for 15 minutes at 30° and chilled on ice. GTP was added to each reaction mixture, and these were placed in cuvettes held at 0°. Baselines were established, the temperature was raised to 30° (at a rate of about 0.5°/sec), and polymerization was followed for 20 minutes. IC50 values were determined by graphical interpolation of experimental points, with drug-containing samples compared to control reaction mixtures containing dimethyl sulfoxide but no drug. At least three independent IC50 values were obtained with each compound.
(§2) The R1 -R3 substituents referred to in Table 1 are with reference to Formula 11, which, for convenience, is reproduced above Table 1. [drawing 13]

tubulin [2] = experiment: Inhibition of [3H]colchicine binding to tubulin (DEAE-cellulose filter method); design: species or system bovine; conditions: 5.0 μM [3H]colchicine, 1.0 μM tubulin; for Inhibition of Colchicine Binding % Inhibition ± SD: inhibitor 5.0 μM; for Inhibition of Colchicine Binding % Inhibition ± SD (values in parentheses): inhibitor 50 μM
Protocol: as §1
The binding of [^3 H]colchicine to tubulin was measured by the DEAE-cellulose filter method as described by Kang et al., "N-acetylcolchinol O-methyl Ether and Thiocolchicine, Potent Analogs of Colchicine Modified in the C Ring: Evaluation of the Mechanistic Basis for Their Enhanced Biological Properties," J. Biol. Chem. 265:10255-1-259 (1990). Reaction mixtures contained 1.0 μM (0.1 mg/mL) tubulin, 1.0 M monosodium glutamate, 0.1 M glucose-1-phosphate, 1.0 mM MgCl2, 1.0 mM GTP, 0.5 mg/mL bovine serum albumin, 5% (v/v) dimethyl sulfoxide, 5.0 μM [^3 H]colchicine and inhibitor at either 5.0 or 50 μM as indicated. These reaction conditions were used because they strongly stabilize the colchicine binding activity of tubulin. The values presented represent averages of three experiments, each with duplicate samples.
as §2

MCF-7 cells = experiment: Inhibition of MCF-7 breast cancer cell growth (sulforhodamine B); format: cell-based; conditions: Homo sapiens, MCF7; 48 hours drug exposure; ± SD
Protocol: as §1
IC50 values for inhibition of cell growth were obtained by measuring the amount of total cell protein with the sulforhodamine B assay as described by Skehan et al., "New Colorimetric Cytotoxicity Assay for Anticancer-drug Screening," J. Natl. Cancer Inst., 82:1107-1112 (1990). MCF-7 cells were grown in RPMI 1640 medium containing 17% fetal calf serum, 12 μg/mL gentamicin sulfate and 2 mM glutamine at 37° in 5% CO2. Confluent cells were trypsinized, diluted 40-fold, and seeded into 96-well microtiter plates. After 24 hours of growth without drug, medium with varying concentrations of drug was added to different wells (final concentration of dimethyl sulfoxide, 0.1%). […] The values presented are averages from at least two independent experiments.
as §2

antimitotic activity = experiment: Biological activity of isolated curacins; conditions: various tests
cell growth and mitosis = conditions: background; cited from earlier work
[3] = system: colchicine site of tubulin; conditions: background; cited from earlier work
microtubule assembly = conditions: background; cited from earlier work
tubulin [4] = conditions: background; cited from earlier work
β-tubulin = conditions: background; cited from earlier work
microtubule ends = conditions: low concentrations; background; cited from earlier work
brine shrimp = conditions: Example 1 of U.S. Pat. No. 5,324,739; cited from earlier work
[5] = stored neat; cited from earlier work
[6] = Chemical stability on storage neat
[7] = system: 60 different human tumor cell lines; experiment: NCI 60-cell line screen / mode of action of curazole; format: cell-based; conditions: COMPARE mean-graph profiles / 60-cell line assay
Protocol: In these examples, curazole was subjected to the drug screening procedure employed by the National Cancer Institute for the screening of drugs having possible anticancer utility. The screening procedure employed a diverse, disease-oriented panel consisting of 60 different human tumor cell lines organized into seven disease-specific subpanels. Curazole was tested over a wide range of concentrations for cytotoxic or growth-inhibitory effects against each cell line comprising the panel. The seven subpanels represented diverse histologies (leukemias, melanomas, and tumors of the lung, colon, kidney, ovary, and brain).
Curazole was tested over a period of several days. During this period the cells were continuously exposed to five log10 -spaced concentrations of the drug starting at about 10^-4 μg/mL. The tests produced 60 individual dose-response curves, one for each cell line (i.e., one for each example).
To produce data for the mean-graph format shown in FIG. 2, a concentration of the extract that produced a target level response was calculated for each cell line. Three different response parameters were evaluated. […] The second response parameter was the total growth inhibition ("TGI"), which is the concentration at which the number of tumor cells remaining at the end of the incubation period substantially equaled the number of tumor cells existing at the start of the incubation period. […]

| Compound | IC50 (tubulin [1]) | Inhibition of Colchicine Binding % Inhibition ± SD (tubulin [2]) | IC50 (MCF-7 cells) | biological activity, particularly antimitotic activity (antimitotic activity) | also measured |
| --- | --- | --- | --- | --- | --- |
| C=CCCc1nc(/C=C\CC/C=C/C=C(\C)CC[C@H](CC=C)OC)cs1 [1-butene derivative] | 920 ± 200 nM | 83 ± 6% | 300 ± 200 nM | – | – |
| CCC[C@@H](CC/C(C)=C/C=C/CCCC[C@@H]1CSC([C@@H]2C[C@@H]2C)=N1)OC [C3,4,15,16 Tetrahydro, 3,4,15,16-tetrahydrocuracin A] | 4600 ± 1000 nM | 1 ± 1% | 3300 ± 2000 nM | – | Inhibition of Colchicine Binding % Inhibition ± SD (values in parentheses) (tubulin [2]): 28 ± 6% |
| C=CCC1(CC/C(C)=C/C=C/CC/C=C\[C@@H]2CSC([C@@H]3C[C@@H]3C)=N2)OCCO1 [C13 Ethylene-dioxy] | 780 ± 300 nM | 92 ± 1% | 30 ± 10 nM | – | – |
| C=CC[C@H](O)CC/C(C)=C/C=C/CC/C=C\[C@@H]1CSC([C@H]2C[C@@H]2C)=N1 [C13 Hydroxyl, Epi C19] | 730 ± 100 nM | 71 ± 5% | 610 ± 200 nM | – | – |
| C=CC[C@H](O)CC/C(C)=C/C=C/CC/C=C\[C@@H]1CSC([C@@H]2C[C@@H]2C)=N1 [C13 Hydroxyl] | 870 ± 90 nM | 82 ± 7% | 450 ± 20 nM | – | – |
| C=CC[C@@H](CC/C(C)=C/C=C/CC/C=C\[C@@H]1CSC([C@H]2C[C@@H]2C)=N1)OCOC [C13 Methyl-methoxy, Epi C19] | 3200 ± 300 nM | 16 ± 3% | 3100 ± 2000 nM | – | Inhibition of Colchicine Binding % Inhibition ± SD (values in parentheses) (tubulin [2]): 32 ± 4% |
| C=CC[C@@H](CC/C(C)=C/C=C/CC/C=C\[C@@H]1CSC([C@@H]2C[C@@H]2C)=N1)OCOC [C13 Methyl-methoxy] | 640 ± 200 nM | 81 ± 6% | 220 nM | – | – |
| CCC[C@@H](CC/C(C)=C/C=C/CC/C=C\[C@@H]1CSC([C@@H]2C[C@@H]2C)=N1)OC [C15,16-dihydro] | 1200 ± 200 nM | 85 ± 7% | 46 nM | – | – |
| C=CC[C@@H](CC/C(C)=C/C=C/CC/C=C\[C@@H]1CSC([C@@H]2C[C@@H]2C)=N1)OC [Curacin A] | 720 ± 200 nM | 94 ± 2% | 38 ± 10 nM | substantial biological activity, particularly antimitotic activity | inhibition of cell growth and mitosis (cell growth and mitosis): potent inhibitor of cell growth and mitosis; binding at colchicine site of tubulin [3]: binding rapidly and dissociating slowly from tubulin; also recorded: binding rapidly and tightly at the colchicine site of tubulin; inhibition of the binding of colchicine to tubulin [3]: potent competitive inhibitor of the binding of colchicine to tubulin; inhibition of microtubule assembly (microtubule assembly): inhibits microtubule assembly; uncoupled GTPase reaction (tubulin [4]): stimulated the uncoupled GTPase reaction; formation of the cys239-cys354 cross link (β-tubulin): inhibits formation of the cys239-cys354 cross link; tubulin turnover at microtubule ends (microtubule ends): increase tubulin turnover at microtubule ends; effectiveness for reducing a population of arthropods (brine shrimp) (brine shrimp): effectiveness; chemical stability [5]: limited chemical stability; stability ([6]; particularly when stored neat): limited stability; biological activity after storage neat ([6]; stored neat versus stored under a solvent): less biological activity than curacin A stored under a solvent |
| C=CC[C@@H](CC/C(C)=C/C=C\CC/C=C\[C@@H]1CSC([C@@H]2C[C@@H]2C)=N1)OC [Curacin B] | – | – | – | substantial biological activity, particularly antimitotic activity | – |
| C=CC[C@@H](CC/C(C)=C\C=C\CC/C=C\[C@@H]1CSC([C@@H]2C[C@@H]2C)=N1)OC [Curacin C] | – | – | – | substantial biological activity, particularly antimitotic activity | – |
| C=CC[C@@H](CC/C=C/C=C/CC/C=C\[C@@H]1CSC([C@@H]2C[C@@H]2C)=N1)OC [Curacin D] | – | 53 ± 10% | 340 ± 100 nM | substantial biological activity, particularly antimitotic activity | – |
| C=CC[C@@H](CC/C(C)=C/C=C/CC/C=C\c1csc([C@@H]2C[C@@H]2C)n1)OC [Curazole, [13R,19R,21S]-1,2-didehydrocuracin A] | 740 ± 10 nM | 74 ± 11% | 300 ± 70 nM | – | mode of action [7]: functions as an antimitotic and has a mode of action similar to a number of conventional antineoplastics |
